Earlier results on 1 molecule are cited in patent publication US8288412B2, “Compounds which have activity at M1 receptor and their uses in medicine” (Glaxo Group Limited, priority 2005, dated 2012).

For data set [1] the following is noted: mice.
For data set [2] the following is noted: monkeys.
The conditions of data set [3]: rats.
For data set [4] the following is noted: unilateral 6-OH-DA lesioned rats.

Turning to `CCCCCCOc1nsnc1C1=CCCN(C)C1` [xanomeline], the apomorphine induced climbing result in data set [1] was “reverses”. The “psychotic symptoms such as suspiciousness, hallucinations and delusions” value (Alzheimer's patients) is “reduce psychotic symptoms”. Moreover, for the setting “patients”, the side effects entry is recorded as “dose-limiting peripheral cholinergic side effects”. Moreover, the amphetamine-induced motor unrest entry in data set [2] was “reverses”. In data set [3], the amphetamine induced locomotion entry was “reverses”. In addition, the “dopamine agonist driven turning” value in data set [4] is recorded as “reverses”.
